Laboratory results as given in patent US20230346820A1, “METHODS AND COMPOSITIONS FOR THE TREATMENT OF SARS-COV-2” (priority 2020, published 2023).
Counter-ions that a name gives are not always drawn. Like-named read-outs stand apart in the source and are kept apart here.

Columns and labels:
SARS-CoV-2 [1] = test system: SARS-CoV-2
HeLa-ACE2 cells [2] = test system: HeLa-ACE2 cells
SARS-CoV-2 [3] = details: for EC50: read-out: Calu-3 CoV-2 EC50
SARS-CoV-2 [4] = experiment: microbe, parasite or virus in culture
in vitro = details: human
[5] = rat, oral; cited from earlier work
SARS-CoV-2 [6] = experiment: Checkerboard synergy study with remdesivir (ZIP model, synergyfinder); format: cell-based
HeLa-ACE2 cells [7] = experiment: cells; format: cell-based, human
[8] = human, oral; cited from earlier work
SARS-CoV-2 [9] = experiment: Time of addition (TOA) assay in HeLa-ACE2 cells; format: cell-based
[10] = read-out: HeLa-ACE2 CoV-2 EC50, Table 4, aggregated data, Geomean, n = 3
[11] = read-out: HeLa-ACE2 Uninfected Tox CC50, Table 4, aggregated data, Geomean, n = 3
[12] = Table 4, aggregated data, Geomean, n = 3, 48 h
[13] = read-out: Calu-3 Uninfected Tox CC50, Table 4, aggregated data, Geomean, n = 3
[14] = Severe acute respiratory syndrome coronavirus 2, HeLa-ACE2, 24 h, read-out: CoV-2 EC50 [μM] (Geomeans, n ≥ 2)
[15] = CC50 [μM] (Geomeans, n ≥ 2 except where indicated: *n = 1)
[16] = Severe acute respiratory syndrome coronavirus 2, HeLa-ACE2, read-out: SARS CoV-2 EC50 (μM)
[17] = read-out: HeLa-ACE-2 EC50 [μM] (Geomeans, n ≥ 2)

Compound	EC50 (SARS-CoV-2 [1]; [10]) [µM]	CC50 (HeLa-ACE2 cells [2]; [11]) [µM]	Calu3 SI CC50/CoV-2 EC50 (SARS-CoV-2 [3]; Table 4)	EC50 (SARS-CoV-2 [3]; [12]) [µM]	CC50 (Calu-3 cells; [13]) [µM]	HeLa-ACE2 CC50/CoV-2 EC50 (SARS-CoV-2 [1])	EC50 (SARS-CoV-2 [4]; [14]) [µM]	further results
CSc1ncnc2c1ncn2[C@@H]1O[C@H](CO)[C@@H](O)[C@H]1O [6-Methyl mercaptopurineriboside]	3.6	15.4	5.80	0.207	1.2	–	–	HeLa-ACE2 SI CC50/CoV-2 EC50 (SARS-CoV-2 [1]; Table 4): 4.27
Oc1ccc(Nc2ccnc3cc(Cl)ccc23)cc1CN1CCCC1 [AMOPYROQUINE]	–	–	–	–	–	19.02	0.904	CC50 (HeLa-ACE2 cells [2]; human): 17.2 µM
CCOc1ccc(Cc2nc3cc(N(C)S(=O)(=O)c4cccs4)ccc3n2CC2CCCCC2)nc1 [AZ-11713908]	> 9.59	33	>8	3.54	> 29.9	–	–	–
Cn1cnc([N+](=O)[O-])c1Sc1ncnc2[nH]cnc12 [Azathioprin]	–	–	–	–	–	–	–	HeLa-ACE2 SI CC50/CoV-2 EC50 (SARS-CoV-2 [1]): 7.67; EC50 (SARS-CoV-2 [1]; read-out: HeLa-ACE2 CoV-2 EC50): 5.08 µM; CC50 (HeLa-ACE2 cells [2]): 39 µM; Calu3 SI CC50/CoV-2 EC50 (SARS-CoV-2 [3]): 7.35; EC50 (SARS-CoV-2 [3]): 0.482 µM; CC50 (Calu-3 cells): 3.55 µM
O=c1[nH]c2ccc(C(F)(F)F)cc2c(-c2cc(Cl)ccc2O)c1CCO [BMS-223131]	> 9.59	21.4	>5.8	5.14	> 29.9	–	–	–
Cc1nc2c(s1)C(=O)C=C(NCCN(C)C)C2=O [BN-82685]	1.53	4.66	5.69	3.05	5.96	–	–	HeLa-ACE2 SI CC50/CoV-2 EC50 (SARS-CoV-2 [1]; Table 4): 3.04
Nc1nccc2c1ncn2C1C=C(CO)C(O)C1O (stereo not shown) [DEAZANEPLANOCINA]	> 9.59	7.95	182.24	0.057	10.3	–	–	–
CCc1ccc2c(c1)N(CC(C)CN(C)C)c1ccccc1S2 (stereo not shown) [Ethylisobutrazine Hydrochloride]	–	–	–	–	–	10.48	2	CC50 (HeLa-ACE2 cells [2]; human): 20.9 µM
N#Cc1c(N)nc(N)nc1N[C@H](c1nc2c(F)ccc(Cl)c2c(=O)n1-c1cccnc1)C1CC1 [GS-9901]	–	–	–	–	–	>8.17	3.81	CC50 (in vitro; [15]): > 31.1 µM; CC50 (in vitro; Uninfected HeLa-ACE2 CC50 (μM)): > 31.1 µM; Cmax [5]: ~1800 nM; t1/2 [5]: ~2 h (rat, oral)(36)
COc1ccc2cc1Oc1ccc(cc1)C[C@H]1c3cc(c(OC)cc3CCN1C)Oc1c(OC)c(OC)cc3c1[C@H](C2)N(C)CC3 [Hanfangchin A]	–	–	–	–	–	>16.08	1.18	Synergy score with remdesivir (δ) (SARS-CoV-2 [6]; Table 3): −3.61; CC50 (in vitro; [15]): > 18.9 µM; CC50 (in vitro; Uninfected HeLa-ACE2 CC50 (μM)): > 18.9 µM; Cmax [5]: ~500 nM; t1/2 [5]: ~20 h (rats, oral)(31); EC50 (SARS-CoV-2 [4]; [16]): 1.18 µM
NC1(c2ccc(-c3nc4ccn5c(=O)[nH]nc5c4cc3-c3ccccc3)cc2)CCC1 [MK-2206]	–	–	–	–	–	>20.63	–	EC50 (HeLa-ACE2 cells [7]; [17]): > 9.59 µM; Synergy score with remdesivir (δ) (SARS-CoV-2 [6]; Table 1, ZIP model, δ>10 synergy, δ<−10 antagonism, between additive): 2.087; Synergy score with remdesivir (δ) (SARS-CoV-2 [6]; Table 3): 2.087; EC50 (SARS-CoV-2 [1]; read-out: CoV-2 EC50 [μM] (Geomeans, n ≥ 2)): 1.1 µM; EC50 (SARS-CoV-2 [1]; read-out: SARS CoV-2 EC50): 1.1 µM; CC50 (HeLa-ACE2 cells [2]): > 22.8 µM; Cmax [8]: ~571 nM; t1/2 [8]: ~75 h (human, oral)(29)
COC(=O)[C@H]1[C@H]2C[C@@H]3c4[nH]c5cc(OC)ccc5c4CCN3C[C@H]2C[C@@H](OC(=O)c2cc(OC)c(OC)c(OC)c2)[C@@H]1OC [Reserpine]	–	–	–	–	–	>6.60	–	EC50 (HeLa-ACE2 cells [7]; [17]): > 9.6 µM; EC50 (SARS-CoV-2 [1]; read-out: CoV-2 EC50 [μM] (Geomeans, n ≥ 2), Table 1, HeLa-ACE2, 24 h): > 5.51 µM; CC50 (HeLa-ACE2 cells [2]): > 36.4 µM
NCCc1cn(S(=O)(=O)c2c(Cl)nc3sccn23)c2ccccc12 [SAX-187]	–	–	–	–	–	4.02	1.85	EC50 (HeLa-ACE2 cells [7]; Homo sapiens, HeLa-ACE2, read-out: HeLa-ACE-2 EC50 [μM] (Geomeans, n ≥ 2)): > 9.37 µM; CC50 (in vitro; [15]): 7.43 µM; CC50 (in vitro; Uninfected HeLa-ACE2 CC50 (μM)): 7.43 µM; Cmax [5]: 400 nM; t1/2 [5]: ~3 h (rat, oral)(39); EC50 (SARS-CoV-2 [4]; [16]): 1.85 µM
CN(C)CCOc1ccc2c(=O)c3ccc(OCCN(C)C)cc3oc2c1 [TILORINE DIHYDROCHLORIDE]	–	–	–	–	–	11.07	0.884	CC50 (HeLa-ACE2 cells [2]; human): 9.79 µM
Nc1nc2[nH]cnc2c(=S)[nH]1 [Tioguanine]	0.787	2.82	6.45	0.127	–	–	–	HeLa-ACE2 SI CC50/CoV-2 EC50 (SARS-CoV-2 [1]; Table 4): 3.58; CC50 (Calu-3 cells): 0.822 µM
CC(CN(C)C)CN1c2ccccc2CCc2ccccc21 (stereo not shown) [Trimipramine]	–	–	–	–	–	10.11	2.11	CC50 (HeLa-ACE2 cells [2]; human): 21.3 µM
CN(C)C(C(=O)Nc1ccc2c(=O)[nH]ccc2c1)c1ccsc1 (stereo not shown) [Verosudil]	> 9.59	> 39.8	5.39	3.51	18.9	–	–	–
COC1(c2cc(F)cc(OCc3ccc4c(ccc(=O)n4C)c3)c2)CCOCC1 [ZD 2138]	> 9.59	28.7	5.18	2.79	14.4	–	–	–
CC(=O)OC[C@H]1O[C@@H]([S-])[C@H](OC(C)=O)[C@@H](OC(C)=O)[C@@H]1OC(C)=O.CCP(CC)CC.[Au+] [auranofin]	0.988	0.634	7.87	0.525	3.13	–	–	HeLa-ACE2 SI CC50/CoV-2 EC50 (SARS-CoV-2 [1]; Table 4): 0.64
CC[C@H]1OC(=O)[C@H](C)[C@@H](O[C@H]2C[C@@](C)(OC)[C@@H](O)[C@H](C)O2)[C@H](C)[C@@H](O[C@@H]2O[C@H](C)C[C@H](N(C)C)[C@H]2O)[C@](C)(O)C[C@@H](C)CN(C)[C@H](C)[C@@H](O)[C@]1(C)O [azithromycin]	–	–	–	–	–	–	–	classification as entry inhibitor in HeLa-ACE2 cells (SARS-CoV-2 [9]): entry inhibitors; activity in Calu-3 infection assay (SARS-CoV-2 [3]): not active
Antimycin A3	> 9.59	> 39.8	109.64	0.036	3.9	–	–	–
Cloturin	3.88	31.5	6.62	0.304	2.01	–	–	HeLa-ACE2 SI CC50/CoV-2 EC50 (SARS-CoV-2 [1]; Table 4): 8.13
